The results in this text go back to US9980479B2, “Method of reducing nematode damage” (Syngenta Crop Protection, LLC, priority 2004, dated 2018).

Where two headings read alike, the source gives them in different places.

Assay [1] has as its system nematodes (Pratylenchus spp.). The following applies: tomato; for % yield increase over check / Total average weight of tomatoes per treatment: at harvest; for % damage of roots: drench 1, 14, 27 and 40 days after transplantation. The protocol: Tomato plants are transplanted into a field infested with nematodes (Pratylenchus spp.) and treated with the treatments indicated in Table I below 1, 14, 27 and 40 days after transplantation. The products are applied by drenching 100 ml spray solution per plant. Plot size is 24 m^2 with 4 replicates. At harvest (up to 19 weeks later), all tomatoes are collected and weighted. The check is an untreated control.

The test system of assay [2] is nematodes (Meloidogyne spp.). The following applies: tomato; for % yield increase over check / Total average weight of tomatoes per 100 plants: at harvest; for % average root galling: drench 1, 18, 32 and 46 days after transplantation. Here is the method: Tomato plants are transplanted into a field infested with nematodes (Meloidogyne spp.) and treated with the treatments indicated in Table IV below 1, 18, 32 and 46 days after transplantation. The products are applied by drenching 100 ml spray solution per plant. Plot size is 42.7 m^2 with 4 replicates. At harvest (up to 19 weeks later), all tomatoes are collected and weighted. The check is an untreated control.

The test system of assay [3] is Meloidogyne. The assay is described as follows: Experiment 5: sandy soil cup test, live 2nd stage nematodes from eggs. It is filed as in vivo. The following applies: applied solution 3 ppm, 15 days of incubation. Here is the method: 110 grams of dry sandy soil is put into plastic cups. The soil is treated by adding 25 ml of water containing given concentrations (in ppm) of chemicals to the soil. The soil and water is carefully mixed and thereafter 1 ml of water containing 12,000 eggs of Meloidogyne is added. After 15 days of incubation, the samples are analyzed for live 2nd stage nematodes by sieving the sand and rinsing with tap water. The amount of rinseate is adjusted to 20 ml. From the 20 ml, 3 samples of 1 ml are taken and nematodes counted, using a counting chamber.

In assay [4] the test system is Meloidogyne. The assay is described as follows: Experiment 6: clay soil cup test, live 2nd stage nematodes from eggs. It is filed as in vivo. The following applies: applied solution 3 ppm, 15 days of incubation. The protocol: 50 grams of dry clay soil is put into plastic cups. The soil is treated by adding 50 ml of water containing given concentrations (in ppm) of chemicals to the soil. The soil and water is carefully mixed, and thereafter 1 ml of water containing 10.,000 eggs of Meloidogyne is added. After 15 days of incubation, the samples are analyzed for live 2nd stage nematodes by sieving the clay, and rinsing with tap water. The amount of rinseate is adjusted to 20 ml. From the 20 ml, 3 samples of 1 ml are taken and nematodes counted, using a counting chamber.

In assay [5] the test system is nematodes (Pratylenchus spp.). As to conditions: tomato; for % yield increase over check / Total average weight of tomatoes per plant in gr: at harvest; for % damage of roots: drench 1, 14, 27 and 40 days after transplantation. Here is the method:
Tomato plants are transplanted into a field infested with nematodes (Pratylenchus spp.) and treated with the treatments indicated in Table II below 1, 14, 27 and 40 days after transplantation. The products are applied by drenching 100 ml spray solution per plant. Plot size is 24 m^2 with 4 replicates. At harvest (up to 19 weeks later), all tomatoes are collected and weighted. The check is an untreated control.

Assay [6] concerns nematodes (Meloidogyne spp.). As to conditions: tomato; for % yield increase over check / Total average weight of tomatoes per 100 plant in kgr: at harvest; for % root galling: drench 1, 18, 32 and 46 days after transplantation. Here is the method: Tomato plants are transplanted into a field infested with nematodes (Meloidogyne spp.) and treated with the treatments indicated in Table III below 1, 18, 32 and 46 days after transplantation. The products are applied by drenching 100 ml spray solution per plant. Plot size is 36.7 m^2 with 4 replicates. At harvest (up to 19 weeks later), all tomatoes are collected and weighted. The check is an untreated control.

As to `O=C(O)CN(CCN(CC(=O)O)CC(=O)O)CC(=O)O` [EDTA, ethylenediaminetetraacetic acid], in assay [1] (500 g ai/ha), the “% yield increase over check” value was 12%, the “Total average weight of tomatoes per treatment” value was 784 kg and the “% damage of roots” value is 25.8%. In assay [1] (1000 g ai/ha), the “% yield increase over check” value stood at 17%, the “Total average weight of tomatoes per treatment” value was found to be 817 kg and the “% damage of roots” value was 22.5%. Moreover, in assay [2] (500 g ai/ha), the “% yield increase over check” value is reported as 6%, the “Total average weight of tomatoes per 100 plants” value is 349 kg and the “% average root galling” value worked out at 34.4%. Besides, in assay [2] (1000 g ai/ha), the “% yield increase over check” value is on record as 10%, the “Total average weight of tomatoes per 100 plants” value was determined as 360 kg and the “% average root galling” value was determined as 23.7%. Also, in the assay on Meloidogyne [3], the “% reduction of live stages” value stood at 0.1% and the “Number of live 2nd stage nematodes” value is 1650. Also, in the assay with Meloidogyne [4], the “% reduction of live stages” value was found to be 0.1% and the “Number of live 2nd stage nematodes” value is listed as 1200.

In the case of “N,N′-ethylenebis(hydroxyphenyl)glycines [EDDHA]”, in assay [5] (500 g ai/ha), the “% yield increase over check” value stood at 11%, the “Total average weight of tomatoes per plant in gr” value is listed as 3500 gr and the “% damage of roots” value came out at 18.5%. Also, in assay [5] (1000 g ai/ha), the “% yield increase over check” value is listed as 18%, the “Total average weight of tomatoes per plant in gr” value is 3695 gr and the “% damage of roots” value worked out at 13.8%. In addition, in assay [6] (500 g ai/ha), the “% yield increase over check” value is listed as 13%, the “Total average weight of tomatoes per 100 plant in kgr” value is reported as 255 kgr and the “% root galling” value is 35%. Moreover, in assay [6] (1000 g ai/ha), the “% yield increase over check” value was 17%, the “Total average weight of tomatoes per 100 plant in kgr” value was determined as 265 kgr and the “% root galling” value is given as 26.1%. Moreover, in the assay with Meloidogyne [3], the “% reduction of live stages” value is 0.1% and the “Number of live 2nd stage nematodes” value is recorded as 1649. Besides, in the assay with Meloidogyne [4], the “% reduction of live stages” value is listed as 0.3% and the “Number of live 2nd stage nematodes” value is listed as 1197.
